From US6872689B1, “Water-dispersible agrochemical compositions” (Agform, Ltd., priority 1999, dated 2005)

Assay type: physicochemical
Experimental: 200 mls water was poured into a jacketed glass vessel and allowed to reach 25 C. A Grant recirculator was used to maintain the temperature at 25 C+/−1 C. A magnetic stirrer at a set speed was used to stir the water. The specified weight of granules was then added to the water and allowed to disperse for 30 seconds before a timer was started. A 2 mls sample was removed using a syringe after 5 minutes and filtered using a 0.45 micron syringe filter. The solution was then analysed to determine the active concentration using a HPLC method.

COc1nc(C)nc(NC(=O)NS(=O)(=O)c2ccccc2Cl)n1 [Airmilled technical, Chlorsulfuron]
solubility in distilled water (in words): not readily soluble
% active added to water that dissolved after 5 minutes (chlorsulfuron, dilution rate 91 mgs a.i./L, distilled water, 25 C): <2%
